Test results from patent publication US11439615B2, “Lipoxin and lipoxin analogue mediated neuroprotection and treatments” (University Health Network, priority 2017, dated 2022).

What was measured:
HT22 cells [1] = assay: Glutamate challenge of HT22 neuronal cells, viability; format: cell-based; conditions: for efficacy of neuroprotection / EC50: HT22 cells exposed to glutamate stress, nonlinear regression; for EC50: Mus musculus, HT-22, n=3/point, read-out: EC50 of neuroprotection; for viability of glutamate challenged HT22 cells: increasing concentrations up to 500 nM, 5 mM glutamate
Protocol: An in vitro assay to recapitulate key aspects of the acute KA model was established. In this case, unconcentrated ACM was applied to the glutamate sensitive neuronal cell line HT22 (66, 67). Glutamate challenge of 5 mM was titrated to induce 60-80% cell death (ie: 20-40% survival). […] The media was concentrated for proteomic analyses.
LXA4 and LXB4 promote direct neuroprotective signaling. To the inventor's knowledge, a role for lipoxins as direct neuroprotective or neurotrophic factors has not been reported. Although their established anti-inflammatory actions extend to the CNS (29-32). However, it was hypothesized they may have indirect protective effects. In order to test whether the protective activity was direct or indirect, LXA4 or LXB4 was applied to neuronal cells in an established in vitro assay.
There is no established receptor for LXB4. However, LXB4 shares structural homology with LXA4 and the DHA-derived resolving D2 (RvD2), which mediate their actions via FPR2 or GPR18 (74), respectively. Therefore, it was assessed whether specific receptor antagonists for FPR2 or GPR18 could block LXB4 mediated protection.
As shown in FIG. 14 lipoxin neuroprotection is dose responsive. Dose responses were generated for LXA4 (open circles) and LXB4 (closed circles) in HT22 cells exposed to glutamate stress, followed by nonlinear regression analyses.

[2] = tested on: retinal ganglion cell (RGC); assay: Mouse chronic glaucoma model (circumlimbal suture ocular hypertension); format: in vivo; conditions: 0.1 μg/μL locally and systemically every other day from week 5, n=10; for loss of RGC (RBPMS flatmount counts): end of 12 weeks; for reduction of RGC function (pSTR) / reduction of retinal nerve fiber layer (RNFL) thickness: week 12
Protocol: LXA4 and LXB4 treatment were assessed and found to be efficacious in a mouse chronic glaucoma model. Chronic ocular hypertension was induced in weaned male C57BL/6 mice using a monocular circumlimbal suture. From week 5, they were treated with either PBS vehicle, LXA4 or LXB4 (0.1 μg/μL, locally and systemically, every other day) (shaded areas). Retinal function (electroretinogram) and structure (optical coherence tomography) were measured weekly in all groups for 12 weeks. At the end of 12 weeks, animals were euthanized and retinal ganglion cell (RGC) counts were analyzed on retinal flatmounts by RBPMS immunostaining. […] (n=10 per group, bars represent S.E.M.).

HT22 cells [3] = assay: MitoTracker Red mitochondrial membrane potential in glutamate challenged HT22 cells; format: cell-based; conditions: 1 μM, HT22 cells challenged with glutamate
From the text: The mechanism of protection was investigated. […] FIG. 15B show quantification of fluorescent intensity per cell (n=3, *p<0.05, **p<0.01, bars represent S.E.M.).

[4] = tested on: retinal ganglion cell neurons (RGCs); assay: Rat chronic IOP (circumlimbal suture) glaucoma model; format: in vivo
From the text: A method for reliably inducing sustained IOPs in the rodent eye was recently developed by Liu et al (55, 56). In this minimally invasive approach, a circumlimbal suture is placed to induce chronic ocular hypertension. An advantage of this strategy is that specific IOPs can be targeted and monitored by rebound tonometry, improving the consistency of results. In addition, following suturing elevated IOPs can be maintained for as long as 15 weeks (55). The model reproduces key features of glaucoma, such as; progressive and preferential decline in RGC function starting by week 8, gradual loss of the retinal nerve fiber layer (RNFL) by week 12, and RGC death by week 15, with minimal overt inflammation (55, 57). In the experiments, circumlimbal sutures were placed in the randomized right or left eyes of anesthetized rats using a sterile 8-0 nylon suture. IOP was measured twice a week, and only animals showing sustained elevated IOP over 21 mmHg for the duration of the experiment were included in the analyses. The delivery and dosage of LXB4 was based on previous publications (58-60). Briefly, LXB4 or vehicle were administered starting from week 8 on alternate days. Due to the unstable nature of lipoxins, a hybrid approach was taken to ensure consistent delivery, including both IP delivery (1 μg) and topically to each eye (100 ng). ERG was measured monthly to assess RGC functional changes using the positive scotopic threshold response (pSTR), which has been used to measure the impact of elevated chronic IOP in rats (55, 61). In addition, RNFL and total retinal thickness were quantified once a month using optical coherence tomography (OCT). After 15 weeks, animals were euthanized and RGC numbers were counted on middle and peripheral quadrants of retinal flatmounts following immunofluorescent staining for the RGC marker BRN3a as above.
Therapeutic LXB4 treatment rescues RGC function in a chronic IOP dependent glaucoma model. To assess whether LXB4 action extends beyond acute stress models, it was investigated if it provides RGC protection in a chronic model more relevant to human neurodegenerative disease. For this purpose a recently described rat perilimbal suture model of glaucoma was used, in which moderately elevated intraocular pressure (IOP) can be consistently maintained over 15 weeks (55, 57). Elevated IOP is the primary clinical glaucoma risk factor, and this model results in similar compromised RGC function, reduced nerve fiber layer (NFL) thickness, and death of RGCs by week 15 (55). […] Therefore, this time point was chosen to initiate an experiment in which therapeutic treatment with LXB4 or vehicle was administered to sutured rats starting at week 8, with longitudinal and pathological assessment of RGC function and survival (FIG. 6A).
LXB4 or vehicle treatment of sutured rats was initiated after 8 weeks of elevated IOP, and was delivered on alternate days until week 15. A control group was treated with vehicle only. Additionally, for each rat increased IOP was induced in the unilaterally, with the contralateral eye serving as control. IOP was monitored twice weekly throughout the experiment. As functional and structural endpoints, electroretinograms (ERG) and optical coherence tomography (OCT) were measured at week 0 (before placing the suture), and on weeks 4, 8, and 12, and 15 of elevated IOP.
In vehicle eyes there were 35% and 30% fewer BRN3a positive RGCs in sutured eyes compared to contralateral controls in the […], respectively (FIG. 7A-FIG. 7B).

Row | Compound | efficacy of neuroprotection (HT22 cells [1]) | EC50 (HT22 cells [1]) [µM] | viability of glutamate challenged HT22 cells (HT22 cells [1]) | loss of RGC (RBPMS flatmount counts) [2] [%] | reduction of RGC function (pSTR) [2] [%] | reduction of retinal nerve fiber layer (RNFL) thickness [2] [%] | glutamate induced increase in mitochondrial membrane potential (MitoTracker Red) (HT22 cells [3]) | RGC function, positive scotopic threshold response (pSTR, ERG) ([4]; IP 1 μg and topical 100 ng on alternate days from week 8 to 15, by week 12, vs vehicle) | IOP levels compared to vehicle treated group ([4]; measured twice weekly throughout) | a-wave (photoreceptor) and b-wave (bipolar cell) ERG signals ([4]; treatment week 8 to 15) | total retinal thickness (OCT) ([4]; treatment week 8 to 15) | RNFL thickness loss (OCT) ([4]; treatment week 8 to 15, by week 15, vs vehicle) | BRN3a positive RGCs on retinal flatmounts, inner and outer retina ([4]; week 15, vs vehicle)
1 | CCCCC[C@H](O)/C=C/C=C\C=C\C=C\[C@@H](O)[C@@H](O)CCCC(=O)O [LXA4, 5S,6R,15S-trihydroxy-7E,9E,11Z,13E-eicosatetraenoic acid] | 0.89 | 0.631 | significantly increased viability | −14.1±1.0 | −24.0±1.3 | −23.8±1.6 |  |  |  |  |  |  | 
2 | CCCCC[C@H](O)[C@H](O)/C=C/C=C/C=C\C=C\[C@@H](O)CCCC(=O)O [LXB4, 5S,14R,15S-trihydroxy-6E,8Z,10E,12E-eicosatetraenoic acid] | 0.81 | 0.0392 | significantly increased viability | −12.2±0.9 | −20.9±1.0 | −20.9±1.0 | blocked the glutamate induced increase in mitochondrial membrane potential | significant recovery | did not differ | no LXB4 effects | not affected | partially rescued | significant rescue of RGCs
